The subject of one assay is HeLa. The assay can be described thus: Cytotoxicity against human HeLa cells. It is filed as functional, cell-based.
The target in assay [1] is T1, 5-hydroxytryptamine receptor 1A (Homo sapiens) (UniProt P08908).
T1 sequence (whole entry): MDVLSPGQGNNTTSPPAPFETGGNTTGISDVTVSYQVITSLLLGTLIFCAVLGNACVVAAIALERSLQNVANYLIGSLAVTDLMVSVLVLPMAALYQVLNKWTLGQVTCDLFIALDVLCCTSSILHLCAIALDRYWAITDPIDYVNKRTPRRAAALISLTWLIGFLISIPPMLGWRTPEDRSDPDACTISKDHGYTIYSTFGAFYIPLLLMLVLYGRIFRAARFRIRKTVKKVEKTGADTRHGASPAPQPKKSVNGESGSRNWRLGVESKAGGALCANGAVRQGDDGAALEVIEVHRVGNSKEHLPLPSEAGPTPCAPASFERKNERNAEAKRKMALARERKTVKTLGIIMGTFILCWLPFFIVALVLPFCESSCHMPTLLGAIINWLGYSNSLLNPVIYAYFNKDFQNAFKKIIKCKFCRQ
Description: Inhibition of 5HT1A receptor at 25 uM.

The target in assay [2] is 5-hydroxytryptamine receptor 2B (Homo sapiens, UniProt P41595). Description: Inhibition of human 5HT2B receptor expressed in cos-7 cells assessed as [3H]5-HT […] after 120 mins. It is filed as cell-based.
5-hydroxytryptamine receptor 2B, sequence (P41595 whole entry): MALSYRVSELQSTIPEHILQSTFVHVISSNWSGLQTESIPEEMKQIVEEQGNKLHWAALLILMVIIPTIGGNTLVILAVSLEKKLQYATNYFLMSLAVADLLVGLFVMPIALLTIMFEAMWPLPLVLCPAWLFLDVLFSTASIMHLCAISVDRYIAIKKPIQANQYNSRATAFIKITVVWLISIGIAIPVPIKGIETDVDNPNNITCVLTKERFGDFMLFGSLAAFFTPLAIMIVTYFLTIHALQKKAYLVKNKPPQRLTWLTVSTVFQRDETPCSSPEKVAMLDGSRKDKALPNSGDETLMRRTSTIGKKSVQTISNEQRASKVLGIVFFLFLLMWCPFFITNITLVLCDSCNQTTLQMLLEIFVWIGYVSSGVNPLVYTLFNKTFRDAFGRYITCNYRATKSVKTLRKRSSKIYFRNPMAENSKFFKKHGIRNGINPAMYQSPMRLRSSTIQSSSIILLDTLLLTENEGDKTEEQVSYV
The target in assay [3] is T2, 5-hydroxytryptamine receptor 3A (Homo sapiens) (UniProt P46098).
T2 sequence (whole entry): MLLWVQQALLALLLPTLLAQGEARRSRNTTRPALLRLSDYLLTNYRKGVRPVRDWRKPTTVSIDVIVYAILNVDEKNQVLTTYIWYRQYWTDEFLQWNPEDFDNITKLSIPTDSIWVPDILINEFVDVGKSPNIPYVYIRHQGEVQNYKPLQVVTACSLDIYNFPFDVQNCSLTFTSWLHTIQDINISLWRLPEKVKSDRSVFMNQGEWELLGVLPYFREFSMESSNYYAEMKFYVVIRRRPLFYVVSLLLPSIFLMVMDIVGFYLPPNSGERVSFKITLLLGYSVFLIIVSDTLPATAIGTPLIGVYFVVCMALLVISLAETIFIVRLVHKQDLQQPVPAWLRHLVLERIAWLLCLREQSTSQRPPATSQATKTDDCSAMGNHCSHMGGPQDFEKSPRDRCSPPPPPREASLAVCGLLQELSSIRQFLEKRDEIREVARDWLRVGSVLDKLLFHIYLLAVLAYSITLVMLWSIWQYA
Description: Inhibition of 5HT3 receptor at 25 uM.

This note sets out measurements from ChEMBL document CHEMBL1921715, “Usabamycins A-C: new anthramycin-type analogues from a marine-derived actinomycete” (Bioorg Med Chem Lett, 2011).

Calls of active or inactive are those of the source. The rule behind the calls is not given here.

With `CC/C=C1\C[C@H]2CNc3c(OC)cccc3C(=O)N2C1` [USABAMYCIN A], the 50% inhibitory concentration (IC50) with HeLa was 107 µM; in assay [2], 12.4 µM. In addition, the inhibition entry in assay [1] and in assay [3] was “inactive” throughout. For the same compound, in assay [2], the Ki stood at 7.89 µM.
For the compound `C/C=C1\C[C@H]2CNc3c(OC)cccc3C(=O)N2C1` [USABAMYCIN B], the half-inhibitory concentration (IC50) is 104 µM with HeLa and 8.45 µM in assay [2]. For the same compound, the inhibition result in assay [1] and in assay [3] was “inactive” each time. In assay [2], the inhibitory constant (Ki) came to 5.38 µM.
For the compound `CC/C=C1\C[C@H]2CNc3ccccc3C(=O)N2C1` [USABAMYCIN C], the IC50 amounted to 102 µM in the assay on HeLa and 8.24 µM in assay [2]. For the same compound, the inhibition result in assay [1] and in assay [3] was “inactive” throughout. Further, the Ki in assay [2] worked out at 5.24 µM.

As a reminder, the IC50 is the concentration that inhibits the measured activity by half. By Ki is commonly meant a measure of affinity in units of concentration, obtained from inhibition or displacement.
